According to PMC11407758, “Integrated stress response (ISR) activation and apoptosis through HRI kinase by PG3 and other p53 pathway-restoring cancer therapeutics” (Oncotarget, 2024):
Where two headings read alike, the source gives them in different places.

Key:
[1] = test system: DR5; assay: Western blot, DR5 induction; type: cell-based, human; settings: five cell lines, 24 h
Outline: (§1)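 Cells treated with compounds for 24 h, then lysed. 15 μg protein separated by SDS-PAGE and immunoblotted. Bands detected by chemiluminescence.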

[2] = test system: MRC5 (human lung fibroblast cell with wild-type p53); assay: Cell viability assay (CellTiterGlo), MRC5 normal cells; type: cell-based; settings: Homo sapiens, MRC5, 72 h, read-out: IC50 values, MRC5 (WT)
Protocol: (§2) Figure 1 PG3 inhibits cell proliferation and growth in a p53-indepent manner. (A–E) Cell viability assay, dose response curves and IC50 value measurements in a panel of cancer cell lines and normal cells. Cells were treated with different concentrations of PG3, PG3-Oc (Oc), obatoclax (Ob), prodigiosin (P) or DMSO for 72 h. Luciferase activity was imaged by the IVIS Imaging System after treatment. Cell viability data were normalized to those of DMSO treatment control in each cell line and data analyses were performed using PRISM4 software. IC50 data are expressed as the mean ±SD (normal; n = 3).
as §2, with “2 p53-dependent inhibition of” for “1 PG3 inhibits”, “is only observed at specific concentrations. (A–J)” for “and growth in a p53-indepent manner. (A–E)”, “ZMC1, CP-313908, APR-246, Ellipticine, Nutalin-3a” for “PG3, PG3-Oc (Oc), obatoclax (Ob), prodigiosin (P)”
(§3) Cells were seeded in 96-well plates (6 × 10^3 cells/well). Cells were treated with different concentrations of compounds or dimethyl sulfoxide (DMSO) as a control for 72 hours. The cell viability was assessed by CellTiterGlo bioluminescent cell viability assay (Promega), following the manufacturer’s protocol. Bioluminescence imaging was measured using the IVIS imager. The percentage of cell viability (mean ± SEM) at each dose was calculated against the respective DMSO control. The IC50 values were determined from the sigmoidal dose-response curves using GraphPad Prism.

[3] = test system: HCT116 (WT); assay: Cell viability assay (CellTiterGlo), HCT116 WT; type: cell-based, human; settings: Homo sapiens, HCT-116; 72 h, CellTiterGlo
Protocol: as §2
as §2, with “2 p53-dependent inhibition of” for “1 PG3 inhibits”, “is only observed at specific concentrations. (A–J)” for “and growth in a p53-indepent manner. (A–E)”, “ZMC1, CP-313908, APR-246, Ellipticine, Nutalin-3a” for “PG3, PG3-Oc (Oc), obatoclax (Ob), prodigiosin (P)”
as §3

[4] = test system: PUMA; assay: Western blot, PUMA induction; type: cell-based, human; settings: five cell lines, 24 h
Outline: as §1

[5] = test system: ATF4; assay: Western blot, ATF4 induction; type: cell-based, human; settings: five cancer cell lines, 24 h
Outline: as §1

[6] = test system: p53 protein; assay: Western blot, p53 protein levels; type: cell-based, human
Outline: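 Cells treated with compounds for 24 h, then lysed; 15 μg protein per lane resolved by SDS-PAGE and immunoblotted. Antibody signal read by chemiluminescence imaging, with short and long exposures shown.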

[7] = test system: ALAS1, UROD; assay: Western blot, heme biosynthesis enzymes; type: cell-based, human
Protocol: Figure 8 Inhibition of heme biosynthesis leads to upregulation of ATF4. (A) HT29 cells were treated with SA and ONC201 for 20 hours. Western blotting was performed using the indicated antibodies. (B) HT29 cells were transfected with siCtrl, siHRI, siClpX, siALAS1, siClpX/siALAS1 and siClpX/siALAS1/siHRI for 48 hours. (C) HT29 cells were transfected with siCtrl, siLonP1, siClpP for 24 or 48 hours respectively, and then treated with ONC201 for 24 hours. (D) Proposed model of ONC201-induced cell apoptosis through ClpP/ALAS1/HRI/ATF4 axis. (E, F) Silencing of ClpP in HCT116 p53^−/− and MDA-MB-468 cells and then treated with PG3, PG3-Oc and ONC201. Western blot was performed using indicated antibodies.
(§4) After treatment, protein lysates were collected for Western blot analysis. A total of 15 μg of protein was used for SDS-PAGE. After primary and secondary antibody incubations, the signal was detected by a chemiluminescence detection kit, imaged by Syngene (Imgen Technologies). Antibodies for NAG-1 (GDF15) and P53 were from Santa Cruz Biotechnology; for caspase 8, cleaved caspase 8, caspase 9, caspase 3, cleavage PARP, eIF2α, p-eIF2α (Ser51), CHOP, ATF4, DR5, and PUMA were from Cell Signaling Technology. Noxa and p21 were from Calbiochem. Ran was from BD Biosciences.
Supplementary Figure 2: ROS and NO are not responsible for PG3-induced HRI activation. (A, B) cells were pre-treated
with ZnPP, L-NMMA, SA and NAC for 2 hours respectively, and then ONC201 or PG3 was added to the medium for 24 hour treatment.
Western blot was performed using indicated antibodies.
(1 picture or pasted object on this page, not shown here)

[8] = test system: cleaved caspase-8, -3, cleaved PARP and PUMA in HT29, SW480 and HCT116 p53−/− cells; assay: Western blot, apoptosis markers in PG3-treated cells; type: cell-based, human
Protocol: Figure 5 PG3 induces apoptosis in p53-null and p53-mutant cancer cell lines. (A–E) Dose-response and time-course analysis of cleavage of caspase-8, -3, cleaved PARP and PUMA in PG3-treated HT29, SW480 and HCT116 p53^−/− cells by western blot using the indicated antibodies. (F–H) Flowcytometry analysis of cell death. (I) HT29 and HT29-PUMA^−/− and (J) SW480 cells were co-treated with PG3 and pan-caspase inhibitor Z-VAD-fmk for 48 h. (K) HCT116 p53^−/− cell were co-treated with PG3 and Z-VAD-fmk for 24 hours.
as §4

[9] = test system: TOV-112D (R175H); assay: Cell viability assay (CellTiterGlo), TOV-112D; type: cell-based, human; settings: for IC50: Homo sapiens, TOV112D, 72 h
Protocol: as §2
as §2, with “2 p53-dependent inhibition of” for “1 PG3 inhibits”, “is only observed at specific concentrations. (A–J)” for “and growth in a p53-indepent manner. (A–E)”, “ZMC1, CP-313908, APR-246, Ellipticine, Nutalin-3a” for “PG3, PG3-Oc (Oc), obatoclax (Ob), prodigiosin (P)”
as §3

[10] = test system: HCT116 (P53−/−); assay: Cell viability assay (CellTiterGlo), HCT116 p53-/-; type: cell-based, human; settings: Homo sapiens, HCT-116; 72 h, CellTiterGlo
Protocol: as §2
as §2, with “2 p53-dependent inhibition of” for “1 PG3 inhibits”, “is only observed at specific concentrations. (A–J)” for “and growth in a p53-indepent manner. (A–E)”, “ZMC1, CP-313908, APR-246, Ellipticine, Nutalin-3a” for “PG3, PG3-Oc (Oc), obatoclax (Ob), prodigiosin (P)”
as §3

[11] = test system: HCT116 (R175H); assay: Cell viability assay (CellTiterGlo), HCT116 R175H; type: cell-based, human; settings: Homo sapiens, HCT-116; 72 h, CellTiterGlo
Outline: (§5)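 Cells (6 × 10^3/well) were exposed to a range of compound concentrations or DMSO for 72 h, and viability was read by CellTiterGlo luminescence on an IVIS imager. Percent viability was calculated against each line's DMSO control, and IC50 was taken from sigmoidal dose-response curves.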

[12] = test system: p21; assay: Western blot, p21 induction; type: cell-based, human; settings: five cell lines, 24 h
Outline: as §1

[13] = test system: HFF-1 (human foreskin fibroblast cell with wild-type p53); assay: Cell viability assay (CellTiterGlo), HFF-1 normal cells; type: cell-based
Outline: as §5

[14] = test system: HT29 (R273H); assay: Cell viability assay (CellTiterGlo), HT29; type: cell-based, human; settings: Homo sapiens, HT-29; 72 h, CellTiterGlo
Outline: as §5

CCc1c(C)[nH]c(/C=C2\N=C(c3ccc[nH]3)C=C2OC)c1C [PG3]
upregulation of DR5 [1]: consistently induce upregulation
IC50 [2]: 2230 nM
IC50 [3]: 71 nM
upregulation of PUMA [4]: consistently induce upregulation
upregulation of ATF4 [5]: induce upregulation of ATF4
wild-type p53 protein level ([6]; HCT116, 24 h): do not upregulate expression
endogenous mutant p53 R273H protein level ([6]; HT29, 24 h): no effects on stability
endogenous mutant p53 R175H protein level ([6]; TOV-112D, 24 h): no effects on stability
exogenous mutant p53 R175H protein level ([6]; engineered HCT116-R175H cells, 24 h): stabilize
ALAS1 protein level ([7]; 24 hour treatment): does not lead to the downregulation of ALAS1
UROD protein levels ([7]; western blot): do not have any effects
time at which cleavage of PARP, caspase-8 and -3 occurs ([8]; HT29, HCT116 p53–/– and SW480): 48 h
concentration sufficient to induce PUMA and activate cleaved caspase-8 and -3 and cleaved-PARP ([8]; HT29 and SW480 cells, dose-response): 0.5 µM
caspase-9 activation ([8]; HT29 cells): does not activate caspase-9
time at which PUMA protein is first induced ([8]; time-course): 24 h
IC50 ([9]; CellTiterGlo, read-out: IC50 values, TOV-1120 (R175H) (converted)): 126 nM
IC50 ([9]; unit inferred, 'within the nanomolar range', read-out: IC50 value, TOV-112D): 120 nM
fold less potent than PG3-Oc ([9]; TOV-112D): 3.3 fold
IC50 [10]: 52 nM
IC50 [11]: 66 nM
upregulation of p21 [12]: consistently induce upregulation
fold less toxic than PG3-Oc ([13]; HFF-1 normal cells): 3.4 fold
IC50 ([13]; Homo sapiens, HFF-1, 72 h, CellTiterGlo, normal cells, read-out: IC50 values, HFF-l (WT)): 1050 nM
IC50 [14]: 36 nM
